Assay results published in PubChem BioAssay AID328 (DTP/NCI, 2004).
Where “and” joins values, the source holds several entries; their conditions need not be identical. Equal entries are not always repeated. Inconclusive results and toxic doses are left out.

System: BDF1 mice, P388 leukemia ip, median survival T/C
Assay: NCI In Vivo Anticancer Drug Screen. Data for tumor model P388 Leukemia (intraperitoneal) in B6D2F1 (BDF1) mice
Details: endpoint: median survival time, higher = longer survival
Summary of the method: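 Read-out is survival of treated animals expressed relative to the vehicle group, as a T/C ratio.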

[1] = dose: 50.0 mg/kg/injection, schedule: Q01DX009 (ip), vehicle: saline with Tween-80
[2] = dose: 100.0 mg/kg/injection, schedule: Q01DX009 (ip), vehicle: saline with Tween-80
[3] = dose: 200.0 mg/kg/injection, schedule: Q01DX009 (ip), vehicle: saline with Tween-80
[4] = dose: 4.0 mg/kg/injection, schedule: Q01DX009 (ip), vehicle: saline

CC(=O)OC1=CCC(C(C)(C)C)CC1 (configuration not stated)
T/C (dose: 5.15 mg/kg/injection, schedule: Q04DX003 (ip), vehicle: saline): 100 % of control
T/C (dose: 6.25 mg/kg/injection, schedule: Q01DX009 (ip), vehicle: Klucel (hydroxypropylcellulose) (HPC)): 100 % of control
T/C (dose: 10.31 mg/kg/injection, schedule: Q04DX003 (ip), vehicle: saline): 90 % of control
T/C (dose: 12.5 mg/kg/injection, schedule: Q01DX009 (ip), vehicle: Klucel (hydroxypropylcellulose) (HPC)): 100 % of control
T/C (dose: 20.62 mg/kg/injection, schedule: Q04DX003 (ip), vehicle: saline): 90 % of control
T/C (dose: 25.0 mg/kg/injection, schedule: Q01DX009 (ip), vehicle: Klucel (hydroxypropylcellulose) (HPC)): 100 % of control
T/C (dose: 35.0 mg/kg/injection, schedule: Q01DX009 (ip), vehicle: Klucel (hydroxypropylcellulose) (HPC)): 91 % of control and 100 % of control
T/C (dose: 41.25 mg/kg/injection, schedule: Q04DX003 (ip), vehicle: Klucel (hydroxypropylcellulose) (HPC)): 87 % of control
T/C (dose: 55.0 mg/kg/injection, schedule: Q01DX009 (ip), vehicle: Klucel (hydroxypropylcellulose) (HPC)): 100 % of control
T/C (dose: 80.0 mg/kg/injection, schedule: Q01DX009 (ip), vehicle: Klucel (hydroxypropylcellulose) (HPC)): 87 % of control

Cc1ccc(NC(=O)C(C)(C)C)c(C(O)(C(F)(F)F)C(F)(F)F)c1
T/C (dose: 100.0 mg/kg/injection, schedule: Q01DX001 (ip), vehicle: saline with Tween-80): 99 % of control
T/C (dose: 200.0 mg/kg/injection, schedule: Q01DX001 (ip), vehicle: saline with Tween-80): 106 % of control
T/C (dose: 400.0 mg/kg/injection, schedule: Q01DX001 (ip), vehicle: saline with Tween-80): 99 % of control

ClCCCN1CCN(CCCCl)CC1
T/C (dose: 6.25 mg/kg/injection, schedule: Q01DX009 (ip), vehicle: distilled water + alcohol): 101 % of control
T/C (dose: 12.5 mg/kg/injection, schedule: Q01DX009 (ip), vehicle: distilled water + alcohol): 99 % of control
T/C (dose: 25.0 mg/kg/injection, schedule: Q01DX009 (ip), vehicle: distilled water + alcohol): 115 % of control
T/C (dose: 100.0 mg/kg/injection, schedule: Q01DX009 (ip), vehicle: distilled water + alcohol): 171 % of control

O=S1(=O)C=C(c2ccccc2)C(c2ccccc2)=C1
T/C (dose: 22.0 mg/kg/injection, schedule: Q04DX003 (ip), vehicle: saline): 104 % of control
T/C (dose: 33.0 mg/kg/injection, schedule: Q04DX003 (ip), vehicle: saline): 113 % of control
T/C (dose: 50.0 mg/kg/injection, schedule: Q04DX003 (ip), vehicle: saline sonified): 118 % of control
T/C (dose: 75.0 mg/kg/injection, schedule: Q04DX003 (ip), vehicle: saline sonified): 150 % of control
T/C (dose: 75.0 mg/kg/injection, schedule: Q04DX003 (ip), vehicle: saline): 122 % of control

COc1cccc(CCCC(=O)CS(C)=O)c1 (configuration not stated)
T/C (dose: 50.0 mg/kg/injection, schedule: Q01DX009 (ip), vehicle: saline): 98 % of control
T/C (dose: 100.0 mg/kg/injection, schedule: Q01DX009 (ip), vehicle: saline): 102 % of control
T/C (dose: 200.0 mg/kg/injection, schedule: Q01DX009 (ip), vehicle: saline): 109 % of control

COC(=O)c1cc(Cl)ccc1OCC(=O)Nc1ccc([N+](=O)[O-])cc1
T/C (dose: 100.0 mg/kg/injection, schedule: Q04DX003 (ip), vehicle: Klucel (hydroxypropylcellulose) (HPC)): 95 % of control and 100 % of control
T/C (dose: 200.0 mg/kg/injection, schedule: Q04DX003 (ip), vehicle: Klucel (hydroxypropylcellulose) (HPC)): 104 % of control
T/C (dose: 400.0 mg/kg/injection, schedule: Q04DX003 (ip), vehicle: Klucel (hydroxypropylcellulose) (HPC)): 87 % of control and 104 % of control

Cc1ccc(Nc2nc(N)nc(CNc3ccc(Cl)cc3)n2)cc1
T/C (dose: 100.0 mg/kg/injection, schedule: Q04DX003 (ip), vehicle: saline sonified): 110 % of control
T/C (dose: 200.0 mg/kg/injection, schedule: Q04DX003 (ip), vehicle: saline sonified): 100 % of control
T/C (dose: 400.0 mg/kg/injection, schedule: Q04DX003 (ip), vehicle: saline sonified): 100 % of control

C/C(Br)=C(/Br)C(=O)O
T/C [1]: 94 % of control
T/C [2]: 97 % of control
T/C [3]: 87 % of control

O=C(CC(c1ccccc1)C1CCCN(c2ccccc2)S1(=O)=O)c1ccccc1 (configuration not stated)
T/C [1]: 109 % of control
T/C [2]: 114 % of control
T/C [3]: 97 % of control

O=[N+]([O-])c1cccc2c1ccc[n+]2Cc1ccccc1
T/C (dose: 12.5 mg/kg/injection, schedule: Q01DX009 (ip), vehicle: saline with Tween-80): 112 % of control
T/C (dose: 25.0 mg/kg/injection, schedule: Q01DX009 (ip), vehicle: saline with Tween-80): 115 % of control
T/C [1]: 122 % of control

CCCCCCCCCCCCCCCCCC[N+](C)(C)C (tested in a mixture with another compound)
T/C (dose: 1.0 mg/kg/injection, schedule: Q01DX009 (ip), vehicle: saline): 109 % of control
T/C (dose: 2.0 mg/kg/injection, schedule: Q01DX009 (ip), vehicle: saline): 113 % of control
T/C [4]: 118 % of control

OCC1CSCN1 (configuration not stated)
T/C (dose: 50.0 mg/kg/injection, schedule: Q04DX002 (ip), vehicle: saline): 100 % of control
T/C (dose: 100.0 mg/kg/injection, schedule: Q04DX002 (ip), vehicle: saline): 103 % of control
T/C (dose: 200.0 mg/kg/injection, schedule: Q04DX002 (ip), vehicle: saline): 98 % of control

O=C1CN(CCc2ccccc2)CC(=O)N2C(c3ccccc3)CCCN12 (configuration not stated)
T/C (dose: 50.0 mg/kg/injection, schedule: Q01DX005 (ip), vehicle: saline with Tween-80): 94 % of control
T/C (dose: 100.0 mg/kg/injection, schedule: Q01DX005 (ip), vehicle: saline with Tween-80): 97 % of control
T/C (dose: 200.0 mg/kg/injection, schedule: Q01DX005 (ip), vehicle: saline with Tween-80): 97 % of control

COC(=N)CCCCCC(=N)OC
T/C (dose: 50.0 mg/kg/injection, schedule: Q01DX005 (ip), vehicle: saline): 92 % of control
T/C (dose: 100.0 mg/kg/injection, schedule: Q01DX005 (ip), vehicle: saline): 97 % of control
T/C (dose: 200.0 mg/kg/injection, schedule: Q01DX005 (ip), vehicle: saline): 87 % of control

O=C1C=CC(=O)N1
T/C (dose: 0.26 mg/kg/injection, schedule: Q01DX009 (ip), vehicle: saline): 105 % of control
T/C (dose: 0.4 mg/kg/injection, schedule: Q01DX009 (ip), vehicle: saline): 90 % of control
T/C (dose: 0.61 mg/kg/injection, schedule: Q01DX009 (ip), vehicle: saline): 100 % of control
T/C (dose: 0.93 mg/kg/injection, schedule: Q01DX009 (ip), vehicle: saline): 109 % of control
T/C (dose: 1.39 mg/kg/injection, schedule: Q01DX009 (ip), vehicle: saline): 118 % of control
T/C (dose: 3.6 mg/kg/injection, schedule: Q04DX003 (ip), vehicle: saline): 95 % of control
T/C (dose: 8.5 mg/kg/injection, schedule: Q04DX003 (ip), vehicle: saline): 104 % of control

COc1cccc(S(=O)c2ccc([N+](=O)[O-])c3no[n+]([O-])c23)c1 (configuration not stated)
T/C (dose: 15.0 mg/kg/injection, schedule: Q01DX009 (ip), vehicle: saline with Tween-80): 112 % of control

N=c1ccn(C(=O)C2=Cc3ccccc3OC2)cc1
T/C (dose: 1.25 mg/kg/injection, schedule: Q01DX009 (ip), vehicle: saline with Tween-80): 88 % of control and 112 % of control
T/C (dose: 2.5 mg/kg/injection, schedule: Q01DX009 (ip), vehicle: saline with Tween-80): 96 % of control and 100 % of control
T/C (dose: 5.0 mg/kg/injection, schedule: Q01DX009 (ip), vehicle: saline with Tween-80): 92 % of control and 100 % of control and 112 % of control
T/C (dose: 5.0 mg/kg/injection, schedule: Q04DX003 (ip), vehicle: saline with Tween-80): 118 % of control
T/C (dose: 10.0 mg/kg/injection, schedule: Q04DX003 (ip), vehicle: saline with Tween-80): 95 % of control
T/C (dose: 20.0 mg/kg/injection, schedule: Q04DX003 (ip), vehicle: saline with Tween-80): 90 % of control

CC(=O)[O][Hg][c]1s[c]([Hg][O]C(C)=O)[c]([Hg][O]C(C)=O)[c]1[Hg][O]C(C)=O
T/C (dose: 1.0 mg/kg/injection, schedule: Q01DX009 (ip), vehicle: Klucel (hydroxypropylcellulose) (HPC)): 101 % of control
T/C (dose: 2.0 mg/kg/injection, schedule: Q01DX009 (ip), vehicle: Klucel (hydroxypropylcellulose) (HPC)): 100 % of control
T/C (dose: 2.6 mg/kg/injection, schedule: Q01DX009 (ip), vehicle: saline): 118 % of control
T/C (dose: 3.8 mg/kg/injection, schedule: Q04DX003 (ip), vehicle: saline): 95 % of control
T/C (dose: 4.0 mg/kg/injection, schedule: Q01DX009 (ip), vehicle: Klucel (hydroxypropylcellulose) (HPC)): 102 % of control
T/C [4]: 118 % of control
T/C (dose: 6.0 mg/kg/injection, schedule: Q01DX009 (ip), vehicle: Klucel (hydroxypropylcellulose) (HPC)): 101 % of control
T/C (dose: 6.0 mg/kg/injection, schedule: Q01DX009 (ip), vehicle: saline): 118 % of control
T/C (dose: 7.5 mg/kg/injection, schedule: Q04DX003 (ip), vehicle: saline): 100 % of control
T/C (dose: 9.0 mg/kg/injection, schedule: Q01DX009 (ip), vehicle: Klucel (hydroxypropylcellulose) (HPC)): 103 % of control
T/C (dose: 9.0 mg/kg/injection, schedule: Q01DX009 (ip), vehicle: saline): 118 % of control
